# Columns and labels:
# [1] = biological target: MAP kinase-activated protein kinase 3 (Homo sapiens) (UniProt Q16644); assay: Inhibition of human full length MAPKAPK3 expressed in Escherichia coli cell assessed as substrate phosphorylation using fluorescence-labelled peptides as substrate at 0.2 uM after 90 mins by microfluidic peptide phosphorylation assay
# [2] = biological target: T1, Serine/threonine-protein kinase Nek2 (Homo sapiens) (UniProt P51955); assay: Inhibition of human full length NEK2 expressed in baculovirus assessed as substrate phosphorylation using fluorescence-labelled peptides as substrate at 0.2 uM after 90 mins by microfluidic peptide phosphorylation assay
# T1 sequence (whole entry): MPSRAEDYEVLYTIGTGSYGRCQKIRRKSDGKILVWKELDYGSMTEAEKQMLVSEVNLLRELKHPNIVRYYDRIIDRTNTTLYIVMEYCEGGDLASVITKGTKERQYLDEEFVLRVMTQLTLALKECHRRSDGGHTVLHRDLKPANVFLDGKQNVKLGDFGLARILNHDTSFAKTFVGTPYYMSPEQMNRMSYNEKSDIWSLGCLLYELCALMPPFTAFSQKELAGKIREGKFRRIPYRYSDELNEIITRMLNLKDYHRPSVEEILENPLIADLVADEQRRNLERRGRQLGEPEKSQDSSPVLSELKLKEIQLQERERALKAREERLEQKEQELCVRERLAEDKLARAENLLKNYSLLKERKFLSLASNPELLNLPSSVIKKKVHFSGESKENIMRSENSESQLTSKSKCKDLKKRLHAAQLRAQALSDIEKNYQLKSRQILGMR
# [3] = biological target: Casein kinase I isoform delta (Homo sapiens) (UniProt P48730); assay: Inhibition of human CK1D catalytic domain expressed in Escherichia coli cell assessed as substrate phosphorylation using fluorescence-labelled peptides as substrate at 0.2 uM after 90 mins by microfluidic peptide phosphorylation assay
# [4] = biological target: T2, MAP kinase-activated protein kinase 5 (Homo sapiens) (UniProt Q8IW41); assay: Inhibition of human full length PRAK expressed in baculovirus assessed as substrate phosphorylation using fluorescence-labelled peptides as substrate at 0.1 uM after 90 mins by microfluidic peptide phosphorylation assay
# T2 sequence (whole entry): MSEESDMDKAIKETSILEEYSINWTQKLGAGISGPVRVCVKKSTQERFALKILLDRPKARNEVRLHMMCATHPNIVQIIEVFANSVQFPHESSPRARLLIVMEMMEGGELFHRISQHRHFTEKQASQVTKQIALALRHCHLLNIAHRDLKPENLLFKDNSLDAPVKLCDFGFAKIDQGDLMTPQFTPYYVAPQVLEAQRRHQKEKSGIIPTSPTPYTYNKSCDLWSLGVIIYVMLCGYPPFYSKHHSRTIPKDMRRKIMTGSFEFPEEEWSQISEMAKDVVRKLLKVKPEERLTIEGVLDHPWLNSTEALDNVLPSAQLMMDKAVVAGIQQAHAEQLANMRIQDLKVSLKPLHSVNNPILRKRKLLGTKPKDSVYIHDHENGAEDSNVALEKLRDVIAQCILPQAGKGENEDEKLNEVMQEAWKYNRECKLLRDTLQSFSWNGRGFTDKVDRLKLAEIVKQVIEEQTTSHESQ
# [5] = biological target: Calcium/calmodulin-dependent protein kinase type II subunit gamma (Homo sapiens) (UniProt Q13555); settings: 0.1 uM
# Description: Inhibition of human CAMK2 gamma catalytic domain expressed in baculovirus assessed as substrate phosphorylation using fluorescence-labelled peptides as substrate at 0.1 uM after 90 mins by microfluidic peptide phosphorylation assay
# [6] = biological target: T3, Testis-specific serine/threonine-protein kinase 1 (Homo sapiens) (UniProt Q9BXA7); settings: 0.1 uM
# T3 sequence (whole entry): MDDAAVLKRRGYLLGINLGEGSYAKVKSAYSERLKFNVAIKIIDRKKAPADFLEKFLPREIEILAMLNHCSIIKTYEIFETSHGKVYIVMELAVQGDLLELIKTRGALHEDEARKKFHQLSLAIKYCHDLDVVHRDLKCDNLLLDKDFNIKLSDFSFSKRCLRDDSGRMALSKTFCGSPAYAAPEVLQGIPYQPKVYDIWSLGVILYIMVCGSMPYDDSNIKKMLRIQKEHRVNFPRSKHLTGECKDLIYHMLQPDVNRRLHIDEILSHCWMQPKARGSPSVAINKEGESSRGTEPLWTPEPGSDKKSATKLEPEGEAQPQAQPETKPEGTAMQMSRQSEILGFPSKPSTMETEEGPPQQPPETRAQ
# Description: Inhibition of human full length TSSK1 expressed in baculovirus assessed as substrate phosphorylation using fluorescence-labelled peptides as substrate at 0.1 uM after 90 mins by microfluidic peptide phosphorylation assay
# [7] = biological target: Tyrosine-protein kinase Fyn (Homo sapiens) (UniProt P06241); assay: Inhibition of human full length FYN expressed in baculovirus assessed as substrate phosphorylation using fluorescence-labelled peptides as substrate at 9 uM after 90 mins by microfluidic peptide phosphorylation assay
# [8] = biological target: Calcium/calmodulin-dependent protein kinase type II subunit gamma (Homo sapiens) (UniProt Q13555); assay: Inhibition of human CAMK2 gamma catalytic domain expressed in baculovirus assessed as substrate phosphorylation using fluorescence-labelled peptides as substrate at 9 uM after 90 mins by microfluidic peptide phosphorylation assay
# [9] = biological target: Fibroblast growth factor receptor 2 (Homo sapiens) (UniProt P21802); assay: Inhibition of human FGFR2 catalytic domain expressed in baculovirus assessed as substrate phosphorylation using fluorescence-labelled peptides as substrate at 70 uM after 90 mins by microfluidic peptide phosphorylation assay
# [10] = biological target: Ribosomal protein S6 kinase alpha-4 (Homo sapiens) (UniProt O75676); assay: Inhibition of human full length MSK2 expressed in baculovirus assessed as substrate phosphorylation using fluorescence-labelled peptides as substrate at 70 uM after 90 mins by microfluidic peptide phosphorylation assay
# [11] = organism: Homo sapiens; assay: Inhibition of human P70S6K catalytic domain expressed in baculovirus assessed as substrate phosphorylation using fluorescence-labelled peptides as substrate at 8 uM after 90 mins by microfluidic peptide phosphorylation assay
# [12] = biological target: T4, Serine/threonine-protein kinase Sgk2 (Homo sapiens) (UniProt Q9HBY8); assay: Inhibition of human full length SGK2 expressed in baculovirus assessed as substrate phosphorylation using fluorescence-labelled peptides as substrate at 1000 uM after 90 mins by microfluidic peptide phosphorylation assay
# T4 sequence (whole entry): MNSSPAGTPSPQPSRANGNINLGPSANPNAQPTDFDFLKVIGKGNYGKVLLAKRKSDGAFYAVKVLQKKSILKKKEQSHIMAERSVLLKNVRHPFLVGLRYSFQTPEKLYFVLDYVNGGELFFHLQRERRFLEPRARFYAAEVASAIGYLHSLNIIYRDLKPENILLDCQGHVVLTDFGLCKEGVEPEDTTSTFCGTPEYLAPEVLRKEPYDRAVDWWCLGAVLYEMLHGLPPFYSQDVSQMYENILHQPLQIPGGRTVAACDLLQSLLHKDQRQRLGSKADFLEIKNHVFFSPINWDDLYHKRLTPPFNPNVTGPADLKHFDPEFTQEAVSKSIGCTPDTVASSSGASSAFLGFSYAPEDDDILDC
# [13] = biological target: Serine/threonine-protein kinase MARK2 (Homo sapiens) (UniProt Q7KZI7); assay: Inhibition of human full length MARK2 expressed in baculovirus assessed as substrate phosphorylation using fluorescence-labelled peptides as substrate at 2 uM after 90 mins by microfluidic peptide phosphorylation assay
# [14] = biological target: MAP/microtubule affinity-regulating kinase 3 (Homo sapiens) (UniProt P27448); assay: Inhibition of human full length c-TAK1 expressed in Escherichia coli cell assessed as substrate phosphorylation using fluorescence-labelled peptides as substrate at 2 uM after 90 mins by microfluidic peptide phosphorylation assay
# MAP/microtubule affinity-regulating kinase 3 (Homo sapiens), sequence (P27448 whole entry, looked up): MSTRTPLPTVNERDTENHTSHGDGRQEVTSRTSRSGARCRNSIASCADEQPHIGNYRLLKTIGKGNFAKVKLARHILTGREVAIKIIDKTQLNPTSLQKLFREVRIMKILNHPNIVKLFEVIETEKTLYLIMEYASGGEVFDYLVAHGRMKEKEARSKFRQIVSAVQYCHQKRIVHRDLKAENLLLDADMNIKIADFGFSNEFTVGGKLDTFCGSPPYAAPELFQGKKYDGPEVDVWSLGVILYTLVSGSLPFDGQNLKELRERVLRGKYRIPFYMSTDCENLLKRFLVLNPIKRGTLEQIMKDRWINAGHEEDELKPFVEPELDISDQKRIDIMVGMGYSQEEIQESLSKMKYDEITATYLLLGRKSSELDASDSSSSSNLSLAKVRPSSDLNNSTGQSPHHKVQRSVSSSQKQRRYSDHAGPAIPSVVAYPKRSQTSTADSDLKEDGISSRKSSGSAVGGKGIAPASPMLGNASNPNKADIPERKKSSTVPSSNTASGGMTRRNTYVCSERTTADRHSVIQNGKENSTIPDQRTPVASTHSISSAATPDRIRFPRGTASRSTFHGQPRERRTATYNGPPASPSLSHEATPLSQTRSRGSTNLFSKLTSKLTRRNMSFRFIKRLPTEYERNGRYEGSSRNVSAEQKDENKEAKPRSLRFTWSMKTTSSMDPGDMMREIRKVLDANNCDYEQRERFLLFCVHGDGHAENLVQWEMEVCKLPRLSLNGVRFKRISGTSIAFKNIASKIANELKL
# Calcium/calmodulin-dependent protein kinase type II subunit gamma (Homo sapiens), sequence (Q13555 whole entry, the tested form may be a part): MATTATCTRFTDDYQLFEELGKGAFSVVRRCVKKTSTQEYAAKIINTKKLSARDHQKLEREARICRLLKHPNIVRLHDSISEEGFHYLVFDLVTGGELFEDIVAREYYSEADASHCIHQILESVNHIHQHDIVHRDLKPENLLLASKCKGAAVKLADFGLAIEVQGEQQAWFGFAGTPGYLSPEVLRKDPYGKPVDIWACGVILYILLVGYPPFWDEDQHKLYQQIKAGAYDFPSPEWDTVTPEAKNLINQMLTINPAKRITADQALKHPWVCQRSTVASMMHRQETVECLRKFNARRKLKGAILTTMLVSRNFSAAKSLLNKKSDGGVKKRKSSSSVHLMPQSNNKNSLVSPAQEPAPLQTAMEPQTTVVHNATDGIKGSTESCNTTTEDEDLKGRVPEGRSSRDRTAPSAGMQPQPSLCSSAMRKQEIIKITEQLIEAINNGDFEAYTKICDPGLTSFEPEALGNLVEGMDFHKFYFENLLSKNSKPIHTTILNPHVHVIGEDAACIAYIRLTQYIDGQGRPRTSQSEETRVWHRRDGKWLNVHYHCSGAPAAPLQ
# Ribosomal protein S6 kinase alpha-4 (Homo sapiens), sequence (O75676 whole entry, looked up, the tested form may be a part): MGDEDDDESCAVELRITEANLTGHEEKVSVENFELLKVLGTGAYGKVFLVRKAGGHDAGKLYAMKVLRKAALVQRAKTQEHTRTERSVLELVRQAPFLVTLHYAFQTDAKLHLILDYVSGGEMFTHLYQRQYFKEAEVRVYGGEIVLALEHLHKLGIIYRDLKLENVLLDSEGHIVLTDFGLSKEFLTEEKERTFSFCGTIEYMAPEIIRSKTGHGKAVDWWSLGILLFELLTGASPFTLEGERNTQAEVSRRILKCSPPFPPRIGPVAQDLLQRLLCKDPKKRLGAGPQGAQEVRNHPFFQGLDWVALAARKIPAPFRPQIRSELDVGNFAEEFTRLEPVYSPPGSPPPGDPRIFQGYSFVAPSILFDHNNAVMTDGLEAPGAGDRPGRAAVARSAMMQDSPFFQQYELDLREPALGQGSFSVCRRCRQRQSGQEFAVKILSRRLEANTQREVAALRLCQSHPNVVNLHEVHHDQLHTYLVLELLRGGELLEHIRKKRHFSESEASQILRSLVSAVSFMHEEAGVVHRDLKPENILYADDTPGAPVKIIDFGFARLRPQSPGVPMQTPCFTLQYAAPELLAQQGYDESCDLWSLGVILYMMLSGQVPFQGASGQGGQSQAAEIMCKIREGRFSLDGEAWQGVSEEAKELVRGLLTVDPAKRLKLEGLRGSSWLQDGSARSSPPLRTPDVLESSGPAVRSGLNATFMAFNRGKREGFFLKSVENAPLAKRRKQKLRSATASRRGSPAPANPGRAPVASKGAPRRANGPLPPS
# Fibroblast growth factor receptor 2 (Homo sapiens), sequence (P21802 22-821 limits assumed): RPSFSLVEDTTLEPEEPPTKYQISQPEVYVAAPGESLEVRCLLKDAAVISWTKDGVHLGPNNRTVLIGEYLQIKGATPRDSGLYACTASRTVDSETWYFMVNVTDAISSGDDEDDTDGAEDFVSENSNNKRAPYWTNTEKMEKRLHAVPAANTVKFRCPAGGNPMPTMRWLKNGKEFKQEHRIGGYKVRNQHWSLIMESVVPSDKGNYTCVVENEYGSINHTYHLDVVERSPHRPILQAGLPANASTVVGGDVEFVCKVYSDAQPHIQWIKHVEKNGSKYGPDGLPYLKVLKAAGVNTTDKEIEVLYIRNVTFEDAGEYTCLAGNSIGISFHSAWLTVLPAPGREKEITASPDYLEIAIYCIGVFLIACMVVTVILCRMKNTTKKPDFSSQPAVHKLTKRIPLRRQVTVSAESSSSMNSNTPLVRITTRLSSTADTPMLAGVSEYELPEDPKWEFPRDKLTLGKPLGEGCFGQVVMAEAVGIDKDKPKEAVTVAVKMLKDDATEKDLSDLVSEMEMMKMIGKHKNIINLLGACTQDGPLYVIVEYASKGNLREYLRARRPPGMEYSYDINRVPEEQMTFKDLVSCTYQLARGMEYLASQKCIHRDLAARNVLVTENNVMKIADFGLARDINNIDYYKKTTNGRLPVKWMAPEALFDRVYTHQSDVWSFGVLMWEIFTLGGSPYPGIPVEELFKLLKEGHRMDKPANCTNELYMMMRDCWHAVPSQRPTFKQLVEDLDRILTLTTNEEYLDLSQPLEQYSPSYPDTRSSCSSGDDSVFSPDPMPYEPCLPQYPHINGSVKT
# Tyrosine-protein kinase Fyn (Homo sapiens), sequence (P06241 2-537 limits assumed): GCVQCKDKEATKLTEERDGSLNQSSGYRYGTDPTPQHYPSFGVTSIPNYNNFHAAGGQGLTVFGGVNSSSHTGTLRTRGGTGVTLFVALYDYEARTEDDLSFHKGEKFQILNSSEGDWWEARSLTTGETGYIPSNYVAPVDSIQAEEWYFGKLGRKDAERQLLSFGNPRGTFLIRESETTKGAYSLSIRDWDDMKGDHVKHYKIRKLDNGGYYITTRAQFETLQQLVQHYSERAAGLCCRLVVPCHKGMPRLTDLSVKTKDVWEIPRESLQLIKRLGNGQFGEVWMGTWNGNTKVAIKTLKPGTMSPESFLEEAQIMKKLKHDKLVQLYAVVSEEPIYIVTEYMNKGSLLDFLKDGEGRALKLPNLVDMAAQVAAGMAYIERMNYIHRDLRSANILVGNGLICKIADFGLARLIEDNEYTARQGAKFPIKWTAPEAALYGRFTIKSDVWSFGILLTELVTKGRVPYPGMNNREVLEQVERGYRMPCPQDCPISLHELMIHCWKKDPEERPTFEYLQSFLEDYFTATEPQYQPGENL
# Serine/threonine-protein kinase MARK2 (Homo sapiens), sequence (Q7KZI7 whole entry): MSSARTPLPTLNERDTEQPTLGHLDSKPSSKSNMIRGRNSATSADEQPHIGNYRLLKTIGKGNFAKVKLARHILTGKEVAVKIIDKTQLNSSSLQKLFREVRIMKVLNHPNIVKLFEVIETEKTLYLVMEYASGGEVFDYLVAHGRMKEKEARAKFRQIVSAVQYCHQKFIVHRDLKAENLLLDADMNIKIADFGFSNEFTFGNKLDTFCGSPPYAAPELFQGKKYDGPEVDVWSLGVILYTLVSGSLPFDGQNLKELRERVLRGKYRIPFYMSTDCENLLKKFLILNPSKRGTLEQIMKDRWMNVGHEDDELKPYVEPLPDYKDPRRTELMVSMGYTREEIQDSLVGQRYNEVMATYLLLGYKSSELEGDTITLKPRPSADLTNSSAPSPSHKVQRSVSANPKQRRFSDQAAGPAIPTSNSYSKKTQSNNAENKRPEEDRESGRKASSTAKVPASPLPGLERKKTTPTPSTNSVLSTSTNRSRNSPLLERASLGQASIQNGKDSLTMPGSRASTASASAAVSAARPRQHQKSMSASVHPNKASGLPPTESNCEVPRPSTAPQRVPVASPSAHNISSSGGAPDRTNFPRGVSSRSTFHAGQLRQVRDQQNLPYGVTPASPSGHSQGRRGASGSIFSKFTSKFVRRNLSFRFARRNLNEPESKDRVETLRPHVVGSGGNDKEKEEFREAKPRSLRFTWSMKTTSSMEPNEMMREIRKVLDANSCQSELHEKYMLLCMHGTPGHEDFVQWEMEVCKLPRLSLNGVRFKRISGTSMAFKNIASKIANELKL
# MAP kinase-activated protein kinase 3 (Homo sapiens), sequence (Q16644 whole entry, looked up): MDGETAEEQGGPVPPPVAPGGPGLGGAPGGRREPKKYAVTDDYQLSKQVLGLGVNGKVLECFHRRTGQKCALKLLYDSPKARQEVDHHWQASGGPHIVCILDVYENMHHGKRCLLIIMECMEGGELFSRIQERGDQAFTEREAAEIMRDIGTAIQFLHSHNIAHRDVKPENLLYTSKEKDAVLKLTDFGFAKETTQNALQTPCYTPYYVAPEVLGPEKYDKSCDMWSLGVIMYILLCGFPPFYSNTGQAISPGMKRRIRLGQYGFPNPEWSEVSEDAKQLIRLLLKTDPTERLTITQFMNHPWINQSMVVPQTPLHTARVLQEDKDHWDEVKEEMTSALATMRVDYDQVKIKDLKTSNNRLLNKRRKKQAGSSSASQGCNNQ
# Casein kinase I isoform delta (Homo sapiens), sequence (P48730 whole entry, looked up, the tested form may be a part, canonical isoform): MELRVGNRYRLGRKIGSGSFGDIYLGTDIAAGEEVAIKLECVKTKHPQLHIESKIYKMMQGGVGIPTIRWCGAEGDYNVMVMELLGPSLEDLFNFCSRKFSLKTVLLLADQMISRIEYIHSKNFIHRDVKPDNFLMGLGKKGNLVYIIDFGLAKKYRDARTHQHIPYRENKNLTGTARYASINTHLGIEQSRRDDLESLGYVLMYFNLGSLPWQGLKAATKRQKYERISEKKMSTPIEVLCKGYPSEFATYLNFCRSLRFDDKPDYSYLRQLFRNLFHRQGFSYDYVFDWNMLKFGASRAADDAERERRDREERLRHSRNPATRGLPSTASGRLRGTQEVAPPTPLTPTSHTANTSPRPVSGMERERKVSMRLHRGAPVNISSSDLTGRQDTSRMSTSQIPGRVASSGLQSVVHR
smiles,measurement,setting,value
Clc1ccc(C2(c3ccc(-c4ncnc5[nH]cnc45)cc3)CCNCC2)cc1,inhibition,[1],4%
same,inhibition,[2],4.5%
same,inhibition,[3],8.5%
C[C@H](CN(C)C)Oc1nc(Nc2cc3cccc(Cl)c3cn2)cnc1C#N,inhibition,[4],3.5%
same,inhibition,[5],0%
same,inhibition,[6],0%
NCC1CN(c2ncnc3[nH]c4cnccc4c23)CCO1 (centres undefined),inhibition,[7],29.5%
same,inhibition,[8],24%
CNCc1ccc(-c2ncnc3[nH]cnc23)cc1,inhibition,[9],27%
same,inhibition,[10],68%
NCC1CCN(c2ncnc3[nH]ccc23)CC1,inhibition,[11],68%
c1cnc2[nH]ccc2c1,inhibition,[12],64%
NC1CCN(c2ncnc3[nH]ccc23)CC1,inhibition,[13],0%
same,inhibition,[14],3%
